Residues, ends and D or L forms follow the SMILES beside them.
Columns and labels:
[1] = tested on: Human red blood corpuscles; assay: Cytotoxicity: hemolysis capacity; format: cell-based; settings: up to 12.5 μM
Protocol: Human red blood corpuscles were diluted with PBS (pH 7.0) to the concentration of 8%, and loaded into each wells of 96-well plate. Synthetic peptide of the present invention was half-fold diluted consecutively from 12.5 μM/well, followed by reacting with the red blood corpuscles for 1 hour at 37° C. After centrifugation, OD414 was measured to determine the amount of hemoglobin in the supernatant. At this time, CA-MA peptide was used as a comparative group and melittin was used as a positive control. In order to investigate the level of hemolysis, 1% triton X-100 was added, and then OD was measured. Hemolysis capacity of triton X-100 was regarded as 100%, with which hemolysis capacity of the synthetic peptide was compared and calculated according to the below <Mathematical Formula 1>.
% hemolysis=(OD A−OD B/OD C−OD B)×100

[2] = tested on: Bacillus subtilis; assay: Visualization of anti-bacterial activity, colonies on LB plate; format: cell-based; settings: 4×10^5 B. subtilis cells, 1 μM peptide, 2 hours at 37° C.; FIG. 1
Protocol: (§1) In order to visualize the antibiotic activity of the synthetic peptide of the present invention on the plate, Pseudomonas aeruginosa and Bacillus subtilis were inoculated in LB medium (1% bacto trypton, 0.5% yeast extract, 1% sodium chloride), and cultured to mid-log phase. Particularly, 4×10^5 P. aeruginosa cells were loaded into the medium, and 4 μM of synthetic peptide was added thereto. 4×10^5 B. subtilis cells were also loaded into the medium, and 1 μM of synthetic peptide was added thereto. After culturing for 2 hours at 37° C., the culture fluid was smeared on LB plate to visualize the cells. At this time, CA-MA peptide was used as a comparative group.

[3] = tested on: Bacillus subtilis (KCTC 1918); assay: MIC measurement, anti-bacterial activity; format: cell-based; settings: summary of the strains of Table 1
Protocol: In order to measure the anti-bacterial activity of the peptide synthesized in Example 1, minimum inhibitory concentration (MIC) of the peptide was measured.
The present inventors used Bacillus subtilis (KCTC 1918) and Staphylococus epidermidis (KCTC 1917) as Gram-positive bacteria, and Pseudomonas aeruginosa (KCTC 1637) and Salmonella typhimurium (KCTC 1926) as Gram-negative bacteria for this experiment. All the bacteria used in this experiment were given by Korea Research Institute of Bioscience and Biotechnology (KRIBB). Each bacterial strain was cultured in LB medium(1% bacto-trypton, 0.5% bacto-yeast extract, 1% sodium chloride) to the mid-log phase, and diluted with 1% bacto-peptone medium at the concentration of 1×10^4 cells/100 μl. The diluted bacteria were loaded into micro-titrate plate. Antibiotic peptide synthesized in Example 1 and CA-MA peptide (as a comparative group) were half-fold diluted consecutively from 25 μM/well, and added into the plate for culture at 37° C. for 6 hours. Finally, the MIC of each strain was determined by observing OD620 with a micro-titrate plate reader.

[4] = Acute toxicity test in rat via non-oral administration; format: in vivo; settings: SD, in vivo, 1 g/kg/15 ml, intravenous, read-out: level up to which no toxic change is caused
Protocol: (§2) The following experiments were performed to see if the synthetic peptide of the present invention has acute toxicity in rat.
(§3) 6-week old SPF SD line rats were used in the tests for acute toxicity. Synthetic peptide of the present invention represented by the SEQ. ID. NO: 2 was suspended in 0.5% methyl cellulose solution and intravenous injected once to 2 rats per group at the dosage of 1 g/kg/15 ml. Death, clinical symptoms, and weight change in rats were observed, hematological tests and biochemical tests of blood were performed, and any abnormal signs in the gastrointestinal organs of chest and abdomen were checked with eyes during autopsy.

[5] = tested on: SPF SD line rats; assay: as above; format: in vivo; settings: single intravenous injection, 1 g/kg/15 ml in 0.5% methyl cellulose
Protocol: as §2, §3

[6] = tested on: Jurkat (a T-cell lymphoma cell line); assay: Anticancer activity, MTT assay; format: cell-based
Protocol: (§4) In order to measure the anticancer activity of the synthetic peptide of the present invention, the present inventors performed MTT assay with Calu-6 (a human lung cancer cell line), SNU 601 (a human stomach cancer cell line) and Jurkat (a T-cell lymphoma cell line) cells. Firstly, 90 μl of each cell line (2×10^5 cells/ml) was loaded into each well of 96-well plate. At this time, only medium contained wells were used as a control. After shaking well, the cells were cultured in CO2 incubator for 3 days. Formazan produced by mitochondria enzymes of living cells was dissolved in 100 μl of 0.04 N HCl-isopropanol, and finally, OD540 was measured by using ELISA reader. The anti-cancer activity of antibiotic peptide of the present invention was represented by a percentage (OD of synthetic peptide treated well/OD of control×100).

[7] = tested on: Calu-6 (a human lung cancer cell line); assay: Anticancer activity, MTT assay; format: cell-based; settings: for anti-cancer activity: Calu-6
Protocol: as §4

[8] = tested on: SNU 601 (a human stomach cancer cell line); assay: Anticancer activity, MTT assay; format: cell-based; settings: for anti-cancer activity: SNU 601
Protocol: as §4

[9] = tested on: Candida albicans (TIMM 1768); assay: Anti-fungal activity, MIC by MTT assay; format: cell-based; settings: summary of the fungi of Table 2
Protocol: In order to measure the anti-fungal activity of the synthetic peptide of the present invention, the present inventors performed MTT assay with Candida albicans (TIMM 1768) and Tricosphoron beigelil (KCTC 7707). Particularly, PDB medium (20% potato infusion frum, 2% bacto dextrose) containing various fungi was loaded into the wells (100 μl/well) of 96-well plate. Antibiotic peptides of the present invention and CA-MA peptide (as a comparative group) were half-fold diluted consecutively, and added into the plate for further culturing. 10 μl of MTT solution ([…], 5 mg/ml) was added into each well followed by further culturing for 5-6 hours. Formazan produced by mitochondria enzymes of living cells was dissolved in 100 μl of 0.04 N HCl-isopropanol. Finally, OD570 was measured by using ELISA reader to determine the degree of MIC.

[10] = tested on: Bacillus subtilis; assay: Anti-bacterial activity observation with SEM; format: cell-based; settings: 0.78 μM, 30 minutes at 37° C.; FIG. 3
Protocol: (§5) Bacillus subtilis (Gram-positive) and Pseudomonas aeruginosa (Gram-negative) cells were cultured in LB medium (1% bacto trypton, 0.5% bacto yeast extract, 1% sodium chloride) to mid-log phase, and the cells were diluted with 10 mM of Na-phosphate buffer containing 100 mM of NaCl) at the concentration of 10^8 cells/ml. Synthetic peptide of the present invention and CA-MA peptide (as a comparative group) were added into the diluted cell culture medium (final conc. 0.78 μM in B. subtilis culture, 1.56 μM in P. aeruginosa culture), followed by further culturing for 30 minutes at 37° C. 0.2 M Na-phosphate buffer containing 5% glutaraldehyde was added into the medium, and the cells were fixed for 2 hours at 4° C. The cells were filtered with isopore filters (0.2 μm pore size, Millipore, Bedford, Mass., USA), and washed with 0.1 M Na-cacodylate buffer (pH 7.4). The filters were treated with 1% osmium tertoxide and dehydrated.

[11] = tested on: Pseudomonas aeruginosa; assay: Anti-bacterial activity observation with SEM; format: cell-based; settings: 1.56 μM, 30 minutes at 37° C.; FIG. 4
Protocol: as §5

[12] = tested on: Bacillus subtilis; assay: Membrane dynamic condition, DPH fluorescence anisotropy; format: cell-based; settings: 6.25 μM˜0.097 μM, 2 hours at 37° C.; FIG. 5A
Protocol: (§6) The present inventors performed the below experiment in order to investigate the dynamic condition of lipid membrane of bacteria cells treated with synthetic peptide of the present invention. Particularly, B. subtilis (Gram-positive) and P. aeruginosa (Gram-negative) were cultured to mid-log phase in LB medium (1% bacto trypton, 0.5% bacto yeast extract, 1% sodium chloride). And the antibiotic peptide of the present invention and CA-MA peptide (as a comparative group) were treated (6.25 μM˜0.097 μM, half-fold diluted) thereto. Each strains were further cultured for 2 hours at 37° C. After fixing with 0.25% formaldehyde for 1 hour at room temperature, cultured cells were washed with PBS (pH 7.4), and then frozen in liquid nitrogen. For the fluorescent labeling, PBS (pH 7.4) was added until OD450 reached to 0.25, and DPH (1,6-diphenyl-1,3,5-hexatriene) dissolved in tetrahydrofuran was added (final conc. […]), followed by further culturing for 45 minutes at 37° C. Steady-state fluorescence anisotropy was determined by measuring the strength of fluorescence with spectrofluorometer (HITACHI F-3010, Tokyo, Japan) at 330 nm and 450 nm.

[13] = tested on: Pseudomonas aeruginosa; assay: as above; format: cell-based; settings: 6.25 μM˜0.097 μM, 2 hours at 37° C.; FIG. 5B
Protocol: as §6

[14] = tested on: Pseudomonas aeruginosa; assay: Visualization of anti-bacterial activity, colonies on plate; format: cell-based; settings: 4×10^5 P. aeruginosa cells, 4 μM peptide, 2 hours at 37° C.; FIG. 2
Protocol: as §1

CC[C@H](C)[C@H](NC(=O)CNC(=O)[C@@H](NC(=O)[C@H](CCCCN)NC(=O)[C@H](CCCCN)NC(=O)[C@H](Cc1ccccc1)NC(=O)[C@H](CC(C)C)NC(=O)[C@H](CCCCN)NC(=O)[C@H](Cc1c[nH]c2ccccc12)NC(=O)[C@@H](N)CCCCN)[C@@H](C)CC)C(=O)NCC(=O)N[C@@H](CCCCN)C(=O)N[C@@H](Cc1ccccc1)C(=O)N[C@@H](CC(C)C)C(=O)N[C@@H](Cc1c[nH]cn1)C(=O)N[C@@H](CO)C(=O)N[C@@H](C)C(=O)N[C@@H](CCCCN)C(=O)N[C@@H](CCCCN)C(=O)N[C@@H](Cc1ccccc1)C(=O)O [CA-MA] (H-KWKLFKKIGIGKFLHSAKKF-OH)
cytotoxicity (hemolysis), in words [1]: did not show any cytotoxicity

CC(C)C[C@H](NC(=O)[C@H](CCCCN)NC(=O)[C@H](CCCCN)NC(=O)[C@H](CC(C)C)NC(=O)[C@H](CC(C)C)NC(=O)[C@H](CCCCN)NC(=O)[C@H](CCCCN)NC(=O)[C@H](CC(C)C)NC(=O)[C@H](CC(C)C)NC(=O)[C@@H]1CCCN1C(=O)[C@@H]1CCCN1C(=O)[C@@H]1CCCN1C(=O)[C@H](CCCCN)NC(=O)[C@H](CCCCN)NC(=O)[C@H](CC(C)C)NC(=O)[C@H](CC(C)C)NC(=O)[C@H](CCCCN)NC(=O)[C@H](CCCCN)NC(=O)[C@H](Cc1c[nH]c2ccccc12)NC(=O)[C@@H](N)CCCCN)C(=O)O [Synthetic peptide (SEQ ID. NO: 2)] (H-KWKKLLKKPPPLLKKLLKKL-OH; N-terminus and C-terminus assumed)
cytotoxicity (hemolysis), in words [1]: did not show any cytotoxicity
colonies on LB plate [2]: no colony was found
antibiotic activity relative to CA-MA peptide [3]: around 4 times
NOAEL [4]: ≥ 10 mg/kg
clinical symptoms, weight change, death [5]: did not cause any specific clinical symptoms, weight change, or death
hematological tests, biochemical tests of blood, autopsy [5]: No change was observed
anti-cancer activity compared with CA-MA peptide ([6]; 3 days, FIG. 6B): higher than that of CA-MA peptide
anti-cancer activity ([6]; over 10 μM concentration): complete restrain of cancer cell growth
anti-cancer activity ([6]; to the concentration of 1 μM): did not showed anti-cancer activity
anti-cancer activity compared with CA-MA peptide ([7]; Calu-6, 3 days, FIG. 6A): higher than that of CA-MA peptide
anti-cancer activity ([7]; over 10 μM concentration): complete restrain of cancer cell growth
anti-cancer activity ([7]; to the concentration of 1 μM): did not showed anti-cancer activity
anti-cancer activity compared with CA-MA peptide ([8]; SNU 601, 3 days, FIG. 6C): higher than that of CA-MA peptide
anti-cancer activity ([8]; over 10 μM concentration): complete restrain of cancer cell growth
anti-cancer activity ([8]; to the concentration of 1 μM): did not showed anti-cancer activity
anti-fungal activity relative to CA-MA peptide [9]: about 2 times
destroyed cells observed with SEM, versus control and CA-MA peptide [10]: much more destroyed cells
destroyed cells observed with SEM, versus control and CA-MA peptide [11]: much more destroyed cells
DPH-labeled fluorescent materials intercalated at lower position of membrane, compared to CA-MA peptide [12]: 15-20%
DPH-labeled fluorescent materials intercalated at lower position of membrane, compared to CA-MA peptide [13]: 15-20%
anti-bacterial activity on agar plate, compared to CA-MA [14]: remarkable anti-bacterial activity

CC[C@H](C)[C@H](NC(=O)CN)C(=O)NCC(=O)N[C@@H](C)C(=O)N[C@H](C(=O)N[C@@H](CC(C)C)C(=O)N[C@@H](CCCCN)C(=O)N[C@H](C(=O)N[C@@H](CC(C)C)C(=O)N[C@H](C(=O)N[C@H](C(=O)NCC(=O)N[C@@H](CC(C)C)C(=O)N1CCC[C@H]1C(=O)N[C@@H](C)C(=O)N[C@@H](CC(C)C)C(=O)N[C@H](C(=O)N[C@@H](CO)C(=O)N[C@@H](Cc1c[nH]c2ccccc12)C(=O)N[C@H](C(=O)N[C@@H](CCCCN)C(=O)N[C@@H](CCCNC(=N)N)C(=O)N[C@@H](CCCCN)C(=O)N[C@@H](CCCNC(=N)N)C(=O)N[C@@H](CCC(N)=O)C(=O)N[C@@H](CCC(N)=O)C(N)=O)[C@@H](C)CC)[C@@H](C)CC)[C@@H](C)O)[C@@H](C)O)C(C)C)C(C)C [Melittin, melittin]
cytotoxicity (hemolysis), in words [1]: high cytotoxicity
